These results are taken from ChEMBL document CHEMBL1201862, “PubChem BioAssay data set” (2004).

Test systems include DLD-1; DMS-114; DMS-273; HOP-18; KM-20L2; LXFL 529; M19-MEL; XF498; RXF 631.
Assay in all cases: NCI-60 cell line screen, 48 h

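Cultured in 96-well plates, cells were exposed to test compound for 48 hours across five concentrations. GI50 marks 50% less growth.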 Activity calls are given as the source filed them. No stated cut-off is given here; in the data, active = GI50 up to about 1.1 µM and inactive = higher. Some results are limits rather than exact numbers.

Take `Cc1ccc2c(c1)-c1c3c(nn1C)-c1ccccc1SC3O2` (stereo not drawn): the GI50 with DLD-1 is > 100 µM (inactive); in the assay on DMS-114, 32.3 µM (inactive); in the assay on DMS-273, 55.5 µM (inactive); with HOP-18, 8.43 µM (inactive); with KM-20L2, 87.7 µM (inactive); in the assay with LXFL 529, 30.7 µM (inactive). Moreover, the GI50 with M19-MEL is 81.3 µM (inactive); in the assay with XF498, 23.4 µM (inactive).
As for `[O-][S+](Cc1ccccc1)c1nc2ccccc2nc1-c1cccs1` (stereo not drawn), the GI50 in the assay with DLD-1 is 11 µM (inactive); in the assay on DMS-114, 2.5 µM (inactive); in the assay with DMS-273, 9.59 µM (inactive); in the assay on HOP-18, 15.9 µM (inactive); in the assay on LXFL 529, 3.22 µM (inactive); with M19-MEL, 5.77 µM (inactive). Also, in the assay with XF498, the GI50 is 2.52 µM (inactive).
With `Cc1cc2c(=O)cc(-c3ccc(O)cc3)oc2c(C(=O)O)c1C`, the GI50 with DLD-1, in the assay on DMS-114, in the assay with DMS-273, in the assay with HOP-18, in the assay on KM-20L2 and with LXFL 529 was > 100 µM (inactive) each time. In addition, the GI50 in the assay on M19-MEL and in the assay with XF498 was > 100 µM (inactive) each time.
Take `CCCCC(C(=O)C(=O)Nc1ccccc1CC)C(=O)C(C)C` (stereo not drawn): the GI50 in the assay on DLD-1, with DMS-114, with DMS-273, in the assay with KM-20L2, in the assay with LXFL 529 and in the assay on M19-MEL was > 100 µM (inactive) in each case. Besides, the GI50 with RXF 631 and with XF498 was > 100 µM (inactive) in each case.
Consider `CC(C)OC(=O)Nc1c([N+](=O)[O-])cc(C(F)(F)F)cc1[N+](=O)[O-]`, for which the GI50 with DLD-1 is > 100 µM (inactive); in the assay with DMS-273, > 100 µM (inactive); in the assay with HOP-18, 21.6 µM (inactive); with KM-20L2 it was > 100 µM (inactive); in the assay on LXFL 529, > 100 µM (inactive); in the assay with XF498, 28.1 µM (inactive).
Turning to `C=CCSc1ncnc2c1ncn2C1OC(CO)C(O)C1O` (stereo not drawn), the GI50 was 2.75 µM (inactive) in the assay on DLD-1; 11.4 µM (inactive) with DMS-114; 11.7 µM (inactive) in the assay with DMS-273; > 100 µM (inactive) in the assay with HOP-18; 55.7 µM (inactive) with KM-20L2; > 100 µM (inactive) in the assay on M19-MEL. Further, in the assay on XF498, the GI50 was > 100 µM (inactive).
Take `Cc1ccc(-c2cc(-c3ccco3)nc(N)n2)o1`: the GI50 with DMS-273, in the assay on KM-20L2, in the assay on LXFL 529 and with XF498 was > 100 µM (inactive) throughout.
For the compound `O=C1C2=C(c3ccccc31)C(c1ccccc1Cl)N1C(=O)CCSC1=N2` (stereo not drawn), the GI50 in the assay on DLD-1, in the assay with DMS-114, in the assay on DMS-273, in the assay with KM-20L2, with M19-MEL and with RXF 631 was > 100 µM (inactive) in each case. Besides, the GI50 in the assay with XF498 was 79.3 µM (inactive).
As to `CCCCCCCCCCCCCCCC(=O)OCC1OC(N2C(=O)/C(=N\NC(N)=S)c3ccc([N+](=O)[O-])cc32)C(OC(C)=O)C1OC(C)=O` (stereo not drawn), the GI50 was 77.1 µM (inactive) in the assay with DLD-1; 66.7 µM (inactive) in the assay on DMS-114; > 100 µM (inactive) in the assay with DMS-273; > 100 µM (inactive) in the assay on HOP-18; 57.3 µM (inactive) with KM-20L2; 38.7 µM (inactive) with LXFL 529. The GI50 in the assay on M19-MEL, in the assay with RXF 631 and with XF498 was > 100 µM (inactive) each time.
With `CC1(C)C(=O)C(O)=CC2C1=CCC1C2(C)C(=O)CC2(C)C(C(C)(O)C(=O)CC(O)C(C)(C)O)C(O)CC12C` (stereo not drawn), the GI50 in the assay on DLD-1 is 3.19 µM (inactive); in the assay with DMS-114, 6.67 µM (inactive); in the assay with DMS-273, 2.85 µM (inactive); in the assay on HOP-18, 2.51 µM (inactive); in the assay on KM-20L2 it was 3.33 µM (inactive); with LXFL 529, 3.64 µM (inactive). Also, the GI50 in the assay with M19-MEL was 8.85 µM (inactive); in the assay with XF498 it was 3.28 µM (inactive).
As to `COc1cc(OC)c2c(=O)c3cccc([N+](=O)[O-])c3n(C)c2c1`, the GI50 in the assay on DMS-114 is 69.2 µM (inactive); in the assay with DMS-273, 60.3 µM (inactive); in the assay with HOP-18, < 0.01 µM (active); in the assay with KM-20L2 it was > 100 µM (inactive); in the assay with LXFL 529, > 100 µM (inactive); in the assay with RXF 631, 34.5 µM (inactive). The GI50 in the assay on XF498 was > 100 µM (inactive).
Regarding `CCOC(=O)C/N=c1\nc(SC)sc2c(C(=O)OCC)nc(Sc3ccccc3)n12`, the GI50 was 34.2 µM (inactive) in the assay on DLD-1; 62.7 µM (inactive) with DMS-114; > 100 µM (inactive) in the assay on HOP-18; > 100 µM (inactive) in the assay with KM-20L2; 14.8 µM (inactive) with LXFL 529; 34 µM (inactive) in the assay on M19-MEL. For the same compound, the GI50 in the assay with RXF 631 was 25.3 µM (inactive); in the assay on XF498 it was 41.2 µM (inactive).
Turning to `CC1=C(C)C(=O)c2c(cc3c4ccccc4ccn23)C1=O`, the GI50 with DLD-1, in the assay on DMS-114, in the assay with DMS-273, with HOP-18, in the assay on KM-20L2 and in the assay with M19-MEL was > 100 µM (inactive) in each case. For the same compound, the GI50 in the assay with XF498 was 63.8 µM (inactive).
For `CC/C(=C(\c1ccccc1)c1ccc(OCC[N+](C)(C)C)cc1)c1ccccc1` [TAMOXIFEN METHYL IODIDE], the GI50 was 15.6 µM (inactive) in the assay with DLD-1; 9.12 µM (inactive) with DMS-114; 6.4 µM (inactive) in the assay on DMS-273; 13.1 µM (inactive) in the assay on HOP-18; 15.7 µM (inactive) with KM-20L2; 10 µM (inactive) in the assay with LXFL 529. Moreover, the GI50 with M19-MEL was 11.6 µM (inactive); in the assay with RXF 631, 19.6 µM (inactive).
For `O=C1OC(O)c2cc3c(cc21)OCO3` (stereo not drawn), the GI50 in the assay with DLD-1, in the assay on DMS-114, in the assay on DMS-273, in the assay with LXFL 529, in the assay on M19-MEL and in the assay with XF498 was > 100 µM (inactive) in each case.
Turning to `CCN(CC)c1ccc(Cl)c2c1C(O)(C(C)C)C2(C)C` (stereo not drawn), the GI50 in the assay on DLD-1 is 17.4 µM (inactive); in the assay on DMS-114, 21.2 µM (inactive); in the assay on DMS-273 it was 15.8 µM (inactive); with HOP-18, 14 µM (inactive); in the assay on KM-20L2 it was 14 µM (inactive); in the assay on LXFL 529, 17 µM (inactive). Also, the GI50 in the assay on M19-MEL is 14.7 µM (inactive).
As for `Cc1c(C(=O)/C=C/C=C/c2ccccc2)[n+]([O-])c2ccccc2[n+]1[O-]`, the GI50 is 14.5 µM (inactive) in the assay on DLD-1; 25.6 µM (inactive) with DMS-114; 32.2 µM (inactive) with DMS-273; 45.2 µM (inactive) in the assay with HOP-18; 38 µM (inactive) in the assay with KM-20L2; 18 µM (inactive) in the assay on LXFL 529. For the same compound, the values for the GI50 in the assay with M19-MEL and in the assay with XF498 were 34.3 µM (inactive) and 35 µM (inactive), respectively.
For `Nc1nc2c3nc(Nc4ccccc4)sc3nc(=S)n2c2sc(Nc3ccccc3)nc12`, the GI50 is > 100 µM (inactive) with DLD-1; 20.3 µM (inactive) in the assay with DMS-114; > 100 µM (inactive) with DMS-273; 36.1 µM (inactive) in the assay on HOP-18; > 100 µM (inactive) with KM-20L2; 4.18 µM (inactive) with LXFL 529. The GI50 in the assay on M19-MEL is 13.4 µM (inactive); in the assay with XF498, 1.98 µM (inactive).
Take `C=C(CN(CC(=C)C(=O)c1ccccc1)C(C)(C)C)C(=O)c1ccccc1`: the GI50 is 2.9 µM (inactive) with DLD-1; 16.9 µM (inactive) in the assay with DMS-114; 16.7 µM (inactive) with DMS-273; 5.42 µM (inactive) in the assay on HOP-18; 18.7 µM (inactive) with KM-20L2; 3.84 µM (inactive) in the assay on LXFL 529. Further, the figures for the GI50 in the assay with M19-MEL and with XF498 were 15.7 µM (inactive) and 6.58 µM (inactive), respectively.
With `CCCCC(=O)OC[n+]1ccc2c(C)c3[nH]c4ccccc4c3c(C)c2c1`, the GI50 in the assay with DLD-1 is 0.37 µM (active); in the assay with DMS-273, 0.147 µM (active); in the assay with HOP-18, 1.34 µM (inactive); with KM-20L2 it was 0.687 µM (active); in the assay on LXFL 529 it was 0.855 µM (active); in the assay with M19-MEL it was 1.07 µM (active). The GI50 in the assay on RXF 631 was 1.07 µM (active).
For `C/C=C1\Oc2ccc(OC)cc2S1(=O)=O`, the GI50 in the assay on DLD-1, in the assay on DMS-114, with DMS-273, in the assay with HOP-18, with KM-20L2 and in the assay with LXFL 529 was > 100 µM (inactive) throughout. For the same compound, the GI50 in the assay with M19-MEL is > 100 µM (inactive).
